Data published in US9366676B2, “Fluorescent chemical compounds having high selectivity for double stranded DNA, and methods for their use” (LIFE TECHNOLOGIES CORPORATION, priority 2005, dated 2016).

Assays:
Jurkat cells = test: Flow cytometry with induced apoptosis cells (apoptosis time course); type: cell-based, human
Description: Live Jurkat cells were split into 13 samples and each cell split was suspended in complete RMPI/10% FBS. Samples was treated with 10 μM Camptothecin in DMSO to induce apoptosis, or treated with DMSO alone to act as a control. Treatment and control time was 1, 2, 3, 4, 5, and 6 hours, and a time zero point. The cell suspensions were then incubated at 37° C./5% CO2 for a designated time. This type of experiment is sometimes called an “apoptosis time course”. Each split was washed once in complete RPMI media/10% Fetal Bovine Serum (FBS) and resuspended at 1×10^6 cells/mL in complete RPMI media with 10% FBS. […] A SYTOX® Blue stain vs compound (24) stain plot was made and a gate was made on compound (24) stain positive and SYTOX® Blue stain negative cells to gate out dead cells, and to ensure only live cells were analyzed. Fluorescence from the SYTOX® Blue stain was collected using 405 nm excitation laser with 450/50 bandpass and compound (24) stain fluorescence was collected at 585/42 bandpass using the 488 nm excitation laser as well as collected at the same 585/42 bandpass using the 532 nm excitation laser. […] The data was further analyzed using ModFit LT Flow Cytometry Modeling Software from Verity Software House, Inc. to look at ratio of G2/G1 and the CV of G1 phase and the percent sub-G0 population (apoptotic population).

[1] = tested on: calf thymus double stranded DNA and ribosomal RNA; test: Determination of DNA/RNA fluorescence ratios; type: binding; settings: for DNA/RNA (fluorescence ratio): 65 ug/mL calf thymus dsDNA vs 65 ug/mL ribosomal RNA, 10 mM Tris, 1 mM EDTA pH 7.5, ratio of 1 = no selectivity; for ex/em: emission: emission value, second number of ex/em cell; for ex/em: excitation: excitation value, first number of ex/em cell
Description: The tested compound was dissolved as a stock solution in DMSO at a concentration of about 0.1-1.0 mg/mL. The exact concentration is not critical. Three tubes are prepared, each containing the same 1-20 uL of stock solution. The first tube contained 10 mM Tris, 1 mM EDTA (pH 7.5) buffer; the second tube contained buffer and 65 ug/mL calf thymus double stranded DNA; and the third tube contained buffer and 65 ug/mL ribosomal RNA. The tubes were incubated at room temperature for 10-15 minutes with protection from light.
In some cases, it was necessary to dilute the sample to keep the fluorescence signal on-scale. In these cases, all three samples were diluted to the same degree. The ratio of the fluorescence of the compound in the presence of DNA and RNA was determined.
The following compounds were selected as representative of the inventive class of compounds. The fluorescence values in the presence of DNA and RNA were determined as described in the previous Example. […] A ratio of 1 would indicate no selectivity. Excitation and emission values are in nm

[2] = tested on: Jurkat cells (human T-lymphocyte); test: Flow cytometry cell cycle staining, live Jurkat cells; type: cell-based; settings: 5 μM, 37° C., 60 minutes, ModFit
Description: Live Jurkat cells (human T-lymphocyte) were suspended at 1×10^6 cells/ml in RPMI media with 10% Fetal Bovine Serum (FBS). 5 μM Compound (20) was added to one mL cell suspension, and incubated at 37° C. for 60 minutes protected from light. Cells were processed using a Becton Dickinson (BD) LSRII Flow Cytometer. A Forward Scatter (FS) vs Side Scatter (SS) dual parameter plot was used to gate main cell population. On gated cells, a dual-parameter plot of Fluorescence-Width vs Fluorescence-Area was used for single cell discrimination gating. Single color fluorescence was collected at 530/30 bandpass using the 488 nm excitation laser, collecting 30,000 events at flow rate of about 200 events/second. The data was further analyzed using ModFit LT Flow Cytometry Modeling Software from Verity Software House, Inc. to determine the ratio of G2/G1 and the CV of G1 phase.

double stranded DNA = settings: cited from earlier work
DNA = settings: cited from earlier work

| Compound | ex/em: emission [1] [nm] | ex/em: excitation [1] [nm] | DNA/RNA (fluorescence ratio) [1] | further results |
| --- | --- | --- | --- | --- |
| CC[C@@]1(O)C(=O)OCc2c1cc1n(c2=O)Cc2cc3ccccc3nc2-1 [Camptothecin, reference compound] | – | – | – | induction time at which sub-G0 population begins to show (Jurkat cells; 10 μM Camptothecin in DMSO, live Jurkat, time course 0-6 hours): 3 h |
| COc1cccc(OC)c1-c1ccc2c(c1)sc(C=C1C=C(N3CCN(C)CC3)N(Cc3ccccc3)c3ccccc31)[n+]2C [Compound 20] | 536 | 510 | 4 | G1-phase ([2]; 488 nm excitation, 530/30 bandpass): 47.08%; G2-phase [2]: 6.25%; G2/G1 ratio [2]: 1.83; S-phase [2]: 46.67% |
| COc1cccc(OC)c1-c1ccc2c(c1)sc(C=C1C=C(SCCN(C)C)N(Cc3ccccc3)c3ccccc31)[n+]2C [Compound 24] | 570 | 520 | 4.6 | excitation maximum ([1]; Example 114): 520 nm; emission maximum ([1]; Example 114 (orange)): 569 nm; staining of sub-G0 (apoptotic) population (Jurkat cells; 10 μM, 37° C., 30 minutes, live Jurkat treated with 10 μM Camptothecin, 488 nm or 532 nm excitation): stains live cells for identification of a sub-G0 population in apoptotic cells which increases with time of induction |
| CCCN(CCCN(C)C)C1=CC(=Cc2sc3cc(C(COC)COC)ccc3[n+]2C)c2ccccc2N1Cc1ccccc1 [Compound 101] | 527 | 503 | 3 | – |
| COc1cccc(OC)c1-c1ccc2c(c1)sc(C=C1C=CN(Cc3ccccc3)C(SCCCN(C)C)=C1)[n+]2C [Compound 102] | 515 | 475 | 3.3 | – |
| CN(C)CCCN(CCCN(C)C)c1cc(C=C2Sc3ccccc3N2C)c2ccccc2[n+]1-c1ccccc1 [PicoGreen] | – | – | – | fluorescence enhancement upon binding to double stranded DNA (double stranded DNA): greater than 1000 fold |
| CCCN(CCCN(C)C)c1cc(/C=C2/Sc3ccccc3N2C)c2ccccc2[n+]1-c1ccccc1 [SYBR Green I] | – | – | – | fluorescence enhancement upon binding to DNA, relative to ethidium bromide (DNA): at least 10 fold; fluorescence quantum yield (DNA): about 0.8 |

Further lines, with some results ahead:

| ex/em: emission [1] [nm] | ex/em: excitation [1] [nm] | Compound | DNA/RNA (fluorescence ratio) [1] | further results |
| --- | --- | --- | --- | --- |
| 537 | 507 | C[n+]1c(C=CC=C2C=CN(Cc3ccccc3)c3ccccc32)sc2cc(-c3ccccc3)ccc21 [Compound 103] | 3.1 | – |
| 666 | 652 | CCOC(=O)CCCOc1cccc(CN2C=CC(=CC=Cc3sc4cc(-c5ccccc5)ccc4[n+]3C)c3ccccc32)c1 [Compound 104] | 9 | – |
| 525 | 496 | COc1cccc(OC)c1-c1ccc2c(c1)sc(/C=C1\C=C(N(C)CCCC(=O)O)N(Cc3ccccc3)c3ccccc31)[n+]2C [Compound 109] | 121 | – |
| 527 | 497 | COc1cccc(OC)c1-c1ccc2c(c1)sc(/C=C1\C=C(N(C)CCCC(=O)NCCOCCOCCOCCO)N(Cc3ccccc3)c3ccccc31)[n+]2C [Compound 111] | 64 | – |
| 541 | 500 | CCOC(=O)CCCOc1cccc(CN2C=C/C(=C\c3sc4cc(-c5c(OC)cccc5OC)ccc4[n+]3C)c3ccccc32)c1 [Compound 112] | 191 | – |
| 530 | 510 | CN1C(=Cc2cc[n+](C)c3ccccc23)Sc2ccccc21 [Thiazole orange, reference compound] | 1 | – |
